System: Aβ peptides (Aβ40, Aβ42) in the plasma and brain of TgCRND8 mice
Test: Long term treatment (8 or 16 weeks) in TgCRND8 mice: Aβ levels in plasma and brain
Format: in vivo, mouse
Conditions: for Brain Abeta40 insoluble / Brain Abeta40 soluble / Brain Abeta42 insoluble / Brain Abeta42 soluble / Plasma Abeta40 / Plasma Abeta42: BX subcutaneous, BW and BZ oral
Protocol: The long-term therapeutic effects of compounds of the present invention on cerebral amyloid deposition and β-amyloid (Aβ) levels in the plasma and in the brains of transgenic mice, TgCRND8, expressing the human amyloid precursor protein (hAPP) was studied. These compounds were administered over an 8 or 16 week period at the end of which the levels of Aβ peptides in the plasma and brain of TgCRND8 animals were determined. The goal of this study was to evaluate the efficacy of the compounds at modulating the progression of the amyloidogenic process in the brain and in the plasma of a transgenic mouse model of Alzheimer's disease (AD)
The mice used in the study consisted of animals bearing one copy of the hAPP gene (+/−) from the 2nd and 3rd generation progenies (N2 and N3) derived from backcrosses from TgCRND8.FVB(N2)AJ(N3) with B6AF1/J hybrid animals. • N1=TgCRND8.FVB(N2)AJ(N3)×B6AF1/J • N2=TgCRND8.FVB(N2)AJ(N3).B6AF1/J(N1)×B6AF1/J • N3=TgCRND8.FVB(N2)AJ(N3).B6AF1/J(N2)×B6AF1/J
The following abbreviations are used to designate these animals in the present study: TgCRND8.B6AF1/J(N2); TgCRND8.B6AF1/J(N3). Male and female transgenic mice were given daily subcutaneous (compound BX) or oral (compounds BW and BZ) administrations of the appropriate compounds for 8 or 16 weeks.
Baseline animals consisted of 9±1 week old naive TgCRND8.B6AF1/J animals from the 2nd and 3rd generations. These mice were used to determine the extent of cerebral amyloid deposits and Aβ levels in the plasma and brain of naive transgenic animals at the initiation of treatment.
Starting at 9 weeks of age (+1 week) animals received daily administration of their respective treatment for a period of 8 or 16 weeks, at a dose of 30 or 100 mg/kg at 10 ml/kg. The route of administration was subcutaneous for water-soluble compounds (Compound BX) and oral for compounds solubilized in methylcellulose 1% (MC 1%) (Compounds BW and BZ). At the end of the treatment periods, plasma and perfused brains were collected for quantification of Aβ levels.
Animal health was monitored, samples were collected and Aβ levels were measured as described above in the short term treatment study. Compounds were scored based on their ability to modulate levels of Aβ peptides in the plasma and the cerebral soluble/insoluble levels in the brain. Levels of Aβ observed in the plasma and brain of treated animals were compared to that of vehicle-treated (water) or methylcellulose-treated control groups and ranked according to the strength of the pharmacological effect. Increases in the levels of Aβ peptides are indicated using “+” symbols, while decreases in the levels of Aβ peptides are indicated using “−” symbols. The strongest effects are recorded as “+++” or “−−−” while the weakest are shown as “+” or “−”.
Specifically, increases in the levels of Aβ (relative to vehicle treated control) of 5 to 14% are scored as “+”; increases of 15 to 29% are scored as “++”; and increases of 30% or higher are scored as “+++”. Decreases in the levels of Aβ of 5 to 14% are scored as “−”; decreases of 15 to 29% are scored as “−−”; and decreases of 30% or more are scored as “−−−”. Additionally, changes of 4% or less in either direction are scored as “0”.

Compound: O=S(=O)(O)CCCNC12CC3CC(CC(C3)C1)C2 [BW]
- Brain Abeta40 insoluble (30 mg/kg daily, 8 wks): −− (decreases of 15 to 29%)
- Brain Abeta40 soluble (30 mg/kg daily, 8 wks): − (Decreases in the levels of Aβ of 5 to 14%)
- Brain Abeta42 insoluble (30 mg/kg daily, 8 wks): 0 (changes of 4% or less in either direction)
- Brain Abeta42 soluble (30 mg/kg daily, 8 wks): −− (decreases of 15 to 29%)
- Plasma Abeta40 (30 mg/kg daily, 8 wks): −−− (decreases of 30% or more)
- Plasma Abeta42 (30 mg/kg daily, 8 wks): −−− (decreases of 30% or more)
- Brain Abeta40 insoluble (30 mg/kg daily, 16 wks): ++ (increases of 15 to 29%)
- Brain Abeta40 soluble (30 mg/kg daily, 16 wks): + (increases in the levels of Aβ (relative to vehicle treated control) of 5 to 14%)
- Brain Abeta42 insoluble (30 mg/kg daily, 16 wks): + (increases in the levels of Aβ (relative to vehicle treated control) of 5 to 14%)
- Brain Abeta42 soluble (30 mg/kg daily, 16 wks): − (Decreases in the levels of Aβ of 5 to 14%)
- Plasma Abeta40 (30 mg/kg daily, 16 wks): −− (decreases of 15 to 29%)
- Plasma Abeta42 (30 mg/kg daily, 16 wks): −− (decreases of 15 to 29%)
- Brain Abeta40 insoluble (100 mg/kg daily, 8 wks): −−− (decreases of 30% or more)
- Brain Abeta40 soluble (100 mg/kg daily, 8 wks): −− (decreases of 15 to 29%)
- Brain Abeta42 insoluble (100 mg/kg daily, 8 wks): −−− (decreases of 30% or more)
- Brain Abeta42 soluble (100 mg/kg daily, 8 wks): −− (decreases of 15 to 29%)
- Plasma Abeta40 (100 mg/kg daily, 8 wks): − (Decreases in the levels of Aβ of 5 to 14%)
- Plasma Abeta42 (100 mg/kg daily, 8 wks): − (Decreases in the levels of Aβ of 5 to 14%)
- Brain Abeta40 insoluble (100 mg/kg daily, 16 wks): + (increases in the levels of Aβ (relative to vehicle treated control) of 5 to 14%)
- Brain Abeta40 soluble (100 mg/kg daily, 16 wks): ++ (increases of 15 to 29%)
- Brain Abeta42 insoluble (100 mg/kg daily, 16 wks): ++ (increases of 15 to 29%)
- Brain Abeta42 soluble (100 mg/kg daily, 16 wks): + (increases in the levels of Aβ (relative to vehicle treated control) of 5 to 14%)
- Plasma Abeta40 (100 mg/kg daily, 16 wks): − (Decreases in the levels of Aβ of 5 to 14%)
- Plasma Abeta42 (100 mg/kg daily, 16 wks): − (Decreases in the levels of Aβ of 5 to 14%)
- brain and plasma levels of Aβ (at 8 weeks): dramatic decrease
- plasma levels of Aβ (at 16 weeks): dramatic decrease

Compound: CC(C)(C)NCCCS(=O)(=O)O [BX, 3-(t-butyl)amino-1-propanesulfonic acid]
- Brain Abeta40 insoluble (30 mg/kg daily, 8 wks): −−− (decreases of 30% or more)
- Brain Abeta40 soluble (30 mg/kg daily, 8 wks): −−− (decreases of 30% or more)
- Brain Abeta42 insoluble (30 mg/kg daily, 8 wks): −− (decreases of 15 to 29%)
- Brain Abeta42 soluble (30 mg/kg daily, 8 wks): −−− (decreases of 30% or more)
- Plasma Abeta40 (30 mg/kg daily, 8 wks): + (increases in the levels of Aβ (relative to vehicle treated control) of 5 to 14%)
- Plasma Abeta42 (30 mg/kg daily, 8 wks): + (increases in the levels of Aβ (relative to vehicle treated control) of 5 to 14%)
- Brain Abeta40 insoluble (30 mg/kg daily, 16 wks): −−− (decreases of 30% or more)
- Brain Abeta40 soluble (30 mg/kg daily, 16 wks): −− (decreases of 15 to 29%)
- Brain Abeta42 insoluble (30 mg/kg daily, 16 wks): − (Decreases in the levels of Aβ of 5 to 14%)
- Brain Abeta42 soluble (30 mg/kg daily, 16 wks): 0 (changes of 4% or less in either direction)
- Plasma Abeta40 (30 mg/kg daily, 16 wks): − (Decreases in the levels of Aβ of 5 to 14%)
- Plasma Abeta42 (30 mg/kg daily, 16 wks): − (Decreases in the levels of Aβ of 5 to 14%)
- Brain Abeta40 insoluble (100 mg/kg daily, 8 wks): ++ (increases of 15 to 29%)
- Brain Abeta40 soluble (100 mg/kg daily, 8 wks): + (increases in the levels of Aβ (relative to vehicle treated control) of 5 to 14%)
- Brain Abeta42 insoluble (100 mg/kg daily, 8 wks): 0 (changes of 4% or less in either direction)
- Brain Abeta42 soluble (100 mg/kg daily, 8 wks): + (increases in the levels of Aβ (relative to vehicle treated control) of 5 to 14%)
- Plasma Abeta40 (100 mg/kg daily, 8 wks): ++ (increases of 15 to 29%)
- Plasma Abeta42 (100 mg/kg daily, 8 wks): +++ (increases of 30% or higher)
- Brain Abeta40 insoluble (100 mg/kg daily, 16 wks): −−− (decreases of 30% or more)
- Brain Abeta40 soluble (100 mg/kg daily, 16 wks): − (Decreases in the levels of Aβ of 5 to 14%)
- Brain Abeta42 insoluble (100 mg/kg daily, 16 wks): −− (decreases of 15 to 29%)
- Brain Abeta42 soluble (100 mg/kg daily, 16 wks): 0 (changes of 4% or less in either direction)
- Plasma Abeta40 (100 mg/kg daily, 16 wks): − (Decreases in the levels of Aβ of 5 to 14%)
- Plasma Abeta42 (100 mg/kg daily, 16 wks): 0 (changes of 4% or less in either direction)
- amount of Aβ in the brain (at both 8 and 16 weeks): dramatic decrease

From patent publication US8044100B2, “Methods and compositions for treating amyloid-related diseases” (Bellus Health Inc., priority 2004, dated 2011)
